The source of these data is patent US12441725B2, “ISO-citrate dehydrogenase (IDH) inhibitor” (ZHEJIANG METON PHARMACEUTICAL CO., LTD, priority 2019, dated 2025).

Experiment [1] concerns the target T1, IDH (endogenous IDH1 R132C) in HT1080 cell (Homo sapiens, UniProt O75874, R132C).
T1 construct: which harbor endogenous heterozygous IDH1 R132C and R132H mutation respectively and accumulate D-2-HG
Kind of experiment: Cell-based assay for IDH inhibition (decrease of D-2-HG) in HT1080 cells. Particulars: human fibrosarcoma cell line HT1080, 16 hours treatment, D-2-HG by LC-MS, in triplet. The source says: The present disclosure also provides a cell-based method for assaying IDH inhibition and selectivity of the compounds in human fibrosarcoma cell line HT1080 and cholangiocarcinoma cell line HCCC 9810, which harbor endogenous heterozygous IDH1 R132C and R132H mutation respectively and accumulate D-2-HG. Tumor -derived IDH mutant lost its normal activity of producing α-KG, and gained a new activity of producing D-2-HG. D-2-HG is a metabolite specifically elevated in tumor cells expressing mutant IDH1 or IDH2 proteins. When treating such mutant IDH-expressing tumor cells with an effective IDH inhibitor, the synthesis of D-2-HG is blocked, and D-2-HG concentration is decreased by the oxidation reaction catalyzed by the endogenous D-2-HG dehydrogenase.
To perform a cell-based IDH inhibition assay, HT1080 and HCCC 9810 cells (or other cell lines harboring different IDH mutations) are cultured in DMEM supplemented with 10% FBS. The cells are treated with compounds of present disclosure at various different concentrations. 16 hours after the treatment, culture medium supernatants are removed and cell metabolites are extracted by 40% methanol and 40% acetonitrile in water (pre-chilled under −80° C.) at 4° C. for 1 hour. The extract supernatants are collected and cell debris are removed via high speed centrifugation. The resulting metabolite extracts are analyzed on an Agilent LC-MS system (model: 1290-6470) for 2-HG and glutamate concentration. A HILIC-Z column (2.1 mm×100 mm, […]) is employed on HPLC. Mobile phase A is 15 mM CH3COONH4 and 0.3% NH3·H2O in water. Mobile phase B is 15 mM CH3COONH4 and 0.3% NH3·H2O in 90% MeCN/10% H2O solvent. An 19% solvent A and 81% solvent B isocratic gradient method is used at a flow rate of 0.3 ml/min. D-2-HG is ionized under negative ion spray mode and detected through the multiple-reaction monitoring of a mass transition pair at m/z=147.0/128.9 and 147.0/85.1. Glutamate is ionized under ion spray mode and detected on negative polarity multiple-reaction monitoring of a mass transition pair at m/z=146/102 and 146/128 and its level is used to normalize 2-HG concentration. The activity of cellular mutant IDH proteins in the presence of each test compound at different concentrations can be represented by relative D-2-HG concentration to negative control samples (i.e., cells are treated with DMSO only), and the IC50 value could be determined to evaluate the inhibition and selectivity of each test compound on the IDH enzymatic activity.
The IDH inhibition activity of the compounds were assessed in human fibrosarcoma cell line HIT1080 according to Test 3 of the Biological Assay section. The test for IDH inhibition of each compound was carried out in triplet. As used in Table 6, “A” refers to an IDH inhibitory activity with an IC50<0.1 μM; “B” refers to an IDH inhibitory activity with an IC50 from 0.1 μM to 0.5 μM; “C” refers to an IDH inhibitory activity with an IC50 from 0.5 μM to 1 μM; “D” refers to an IDH inhibitory activity with an IC50>1 μM.

The next experiment addresses T2, IDH1 R132C (Homo sapiens, UniProt O75874, R132C).
T2 construct: 6xHis
As to the kind of experiment: Biochemical assay for IDH inhibition (NADPH fluorescence), mutant IDH1 R132C. Particulars: 25 nM IDH1-R132C, 1 hour pre-incubation, in triplet. The source says:
(§1) The present disclosure provides a biochemical assay method for detecting the IDH inhibition and selectivity of the compounds by detecting IDH enzyme activity directly.
(§2) Wild-type IDH enzymes convert NADP^+ to NADPH when catalyzing the α-KG producing reaction. Mutant IDH enzymes convert NADPH to NADP^+ when catalyzing the D-2-HG producing reaction. So, the activity of wild-type and mutant IDH1/2 could be measured by monitoring NADPH level change as NADPH is fluorescent (Excitation 340 nm, Emission 460 nm). By monitoring the change of NADPH level in the reaction, the enzyme activity could be determined rapidly and efficiently and IC50 of a compound could also be assayed.
(§3) The test compounds are prepared into 50 mM stock solutions in DMSO and stored at −20° C. Each test compound stock is further diluted to obtain a 100× stock solution at a concentration of 400 μM, 200 μM, 100 μM, 50 μM, 25 μM, 12.5 μM, 6.25 μM and 3.125 μM, respectively, for the final use on the day of test (the concentration range of 100× stock solutions might be adjusted to cover the estimated IC50 of a specific test compound).
(§4) Inhibition of Mutant IDH1 (R132H or R132C):
(§5) To assay the enzymatic activity of mutant IDH1 proteins, 25 nM IDH1-R132C or 50 nM IDH1-R132H protein solutions are prepared in 20 mM Tris-HCl pH7.5, 150 mM NaCl, 10 mM MgCl2, 1 mM DTT, 0.05 mg/ml BSA and 1.33 mM α-KG. 148 μL 25 nM IDH1-R132C or 50 nM IDH1-R132H protein solutions are mixed with 2 μL DMSO (vehicle control for test compounds) or an above-mentioned 100× stock solution of a test compound and incubated for 1 hour at room temperature. Extra reactions containing 148 μL no-enzyme solution (20 mM Tris-HCl pH7.5, 150 mM NaCl, 10 mM MgCl2, 1 mM DTT, 0.05 mg/ml BSA and 1.33 mM α-KG) and 2 μL DMSO are also set up as background controls. Then each reaction is initiated by adding 50 μL 80 μM NADPH solution prepared in 20 mM Tris-HCl pH7.5, 150 mM NaCl, 10 mM MgCl2, 1 mM DTT and 0.05 mg/ml BSA. BioTek Synergy H1 Microplate reader (BioTek Instruments Inc., Winooski, U.S.) is employed to monitor the NADPH fluorescence (Excitation 340 nm, Emission 460 nm) every 42 seconds for 15 minutes. NADPH change rate is determined according to the linear phase of the fluorescence-time curve and results from the background control reactions are used as background subtraction to calculate the net NADPH change rates of other reactions. The net NADPH change rates from the vehicle control reactions are used as 100% enzymatic activity and thus the relative enzymatic activity of reactions with test compounds added could be determined. Then a dose-response curve is drawn for each test compound and the corresponding IC50 is calculated. The IC50 value is used to evaluate the inhibition and selectivity of each test compound on the IDH enzymatic activity.
(§6) The IDH inhibition activity of the compounds were assessed according to Test 2 of the Biological Assay section. The test for mutant IDH1 R132H and IDH1 R132C inhibition of each compound was carried out in triplet. As used in Table 5, “A” refers to an inhibitory activity against IDH1 R132H or IDH1 R132C with an IC50<0.1 μM; “B” refers to an inhibitory activity against IDH1 R132H or IDH1 R132C with an IC50 from 0.1 μM to 0.5 μM; “C” refers to an inhibitory activity against IDH1 R132H or IDH1 R132C with an IC50 from 0.5 μM to 1 μM; “D” refers to an inhibitory activity against IDH1 R132H or IDH1 R132C with an IC50>1 μM.

The target in a further experiment is T3, IDH1 R132H (Homo sapiens, UniProt O75874, R132H).
T3 construct: 6xHis
Kind of experiment: Biochemical assay for IDH inhibition (NADPH fluorescence), mutant IDH1 R132H. Particulars: 50 nM IDH1-R132H, 1 hour pre-incubation, in triplet.
From the text: as §1, §2, §3, §4, §5, §6

pIC50: −log10 of the molar value.

T1 sequence (O75874 2-414 R132C): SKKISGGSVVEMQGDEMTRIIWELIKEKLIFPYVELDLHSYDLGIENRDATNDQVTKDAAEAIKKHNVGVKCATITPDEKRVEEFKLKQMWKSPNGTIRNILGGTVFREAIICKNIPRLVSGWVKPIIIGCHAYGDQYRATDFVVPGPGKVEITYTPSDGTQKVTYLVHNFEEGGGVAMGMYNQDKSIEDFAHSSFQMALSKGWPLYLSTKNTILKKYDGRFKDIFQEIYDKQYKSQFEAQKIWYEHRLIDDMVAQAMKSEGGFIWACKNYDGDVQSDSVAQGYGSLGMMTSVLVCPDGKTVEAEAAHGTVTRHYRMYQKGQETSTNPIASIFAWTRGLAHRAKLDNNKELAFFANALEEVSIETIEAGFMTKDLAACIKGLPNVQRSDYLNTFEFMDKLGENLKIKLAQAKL
T3 sequence (O75874 whole entry R132H): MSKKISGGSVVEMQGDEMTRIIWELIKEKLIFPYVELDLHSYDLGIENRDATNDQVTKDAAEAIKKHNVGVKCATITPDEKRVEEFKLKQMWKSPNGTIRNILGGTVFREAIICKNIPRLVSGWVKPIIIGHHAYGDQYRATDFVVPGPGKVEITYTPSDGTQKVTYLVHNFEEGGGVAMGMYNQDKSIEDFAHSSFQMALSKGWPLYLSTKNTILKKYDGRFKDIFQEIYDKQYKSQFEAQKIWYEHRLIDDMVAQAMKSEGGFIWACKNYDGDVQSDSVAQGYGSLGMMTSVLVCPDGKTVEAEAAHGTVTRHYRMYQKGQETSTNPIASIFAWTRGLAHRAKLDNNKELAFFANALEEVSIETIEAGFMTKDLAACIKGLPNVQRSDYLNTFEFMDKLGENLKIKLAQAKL
T2 sequence (O75874 whole entry R132C): as the sequence (O75874 whole entry R132H) above, with H132C counted along it

Broadly, the pIC50 is −log10 of the IC50, conventionally taken in molar units. In the case of `CCN1Cc2c(ccnc2N[C@H](C)c2ccc(Oc3ccccc3)c(F)c2)C1=O` [Compound 12, (R)-2-ethyl-4-((1-(3-fluoro-4-phenoxyphenyl)ethyl)amino)-2,3-dihydro-1H-pyrrolo[3,4-c]pyridin-1-one], the pIC50 (in experiment [1]; on IDH1 R132C; on IDH1 R132H) was under 6.00 in each case.

For the molecule `CCN1Cc2c(ccnc2N[C@@H](C)c2ccc(Oc3cccnc3)c(F)c2)C1=O` [Compound 13, (S)-2-ethyl-4-((1-(3-fluoro-4-(pyridin-3-yloxy)phenyl)ethyl)amino)-2,3-dihydro-1H-pyrrolo[3,4-c]pyridin-1-one], the pIC50 (in experiment [1]; on IDH1 R132C; on IDH1 R132H) was under 6.00 each time.

`CCN1Cc2c(ccnc2N[C@@H](C)c2ccc(OC3CCCCC3)c(F)c2)C1=O` [Compound 14, (S)-4-((1-(4-(cyclohexyloxy)-3-fluorophenyl)ethyl)amino)-2-ethyl-2,3-dihydro-1H-pyrrolo[3,4-c]pyridin-1-one]: the pIC50 (in experiment [1]; at IDH1 R132C; on IDH1 R132H) was under 6.00 in each case.

On to `CCN1Cc2c(ccnc2N[C@@H](C)c2ccc(OC3CCCC3)c(F)c2)C1=O` [Compound 15, (S)-4-((1-(4-(cyclopentyloxy)-3-fluorophenyl)ethyl)amino)-2-ethyl-2,3-dihydro-1H-pyrrolo[3,4-c]pyridin-1-one], for which the pIC50 in experiment [1] is under 6.00; at IDH1 R132C it was 6.00 to 6.30; on IDH1 R132H it was 6.30 to 7.00.

As to `Cc1ccc(Oc2ccc([C@H](C)Nc3nccc4c3CN(CCF)C4=O)cc2F)cc1` [Compound 16, (S)-4-((1-(3-fluoro-4-(p-tolyloxy)phenyl)ethyl)amino)-2-(2-fluoroethyl)-2,3-dihydro-1H-pyrrolo[3,4-c]pyridin-1-one], the pIC50 in experiment [1] was under 6.00; at IDH1 R132C, 6.00 to 6.30; at IDH1 R132H, 6.00 to 6.30.

For `Cc1ccc(Oc2ccc([C@H](C)Nc3nccc4c3CN(CC(F)F)C4=O)cc2F)cc1` [Compound 17, (S)-2-(2,2-difluoroethyl)-4-((1-(3-fluoro-4-(p-tolyloxy)phenyl)ethyl)amino)-2,3-dihydro-1H-pyrrolo[3,4-c]pyridin-1-one], the negative logarithm of the IC50 (pIC50) is under 6.00 in experiment [1], 6.30 to 7.00 on IDH1 R132C and 6.30 to 7.00 at IDH1 R132H.

With `CCN1Cc2c(N[C@@H](C)c3ccc(Oc4ccc(C)cc4)c(F)c3)ncc(F)c2C1=O` [Compound 18, (S)-2-ethyl-7-fluoro-4-((1-(3-fluoro-4-(p-tolyloxy)phenyl)ethyl)amino)-2,3-dihydro-1H-pyrrolo[3,4-c]pyridin-1-one], the figures for the pIC50 (in experiment [1]; at IDH1 R132C; on IDH1 R132H) were under 6.00, under 6.00 and 6.30 to 7.00, respectively.

Take `CCN1Cc2c(N[C@@H](C)c3ccc(OC4CCCC4)c(F)c3)ncc(F)c2C1=O` [Compound 19, (S)-4-((1-(4-(cyclopentyloxy)-3-fluorophenyl)ethyl)amino)-2-ethyl-7-fluoro-2,3-dihydro-1H-pyrrolo[3,4-c]pyridin-1-one]: the negative logarithm of the IC50 (pIC50) (in experiment [1]; at IDH1 R132C; at IDH1 R132H) was under 6.00 throughout.

Consider `CCN1Cc2c(ccnc2N[C@@H](C)c2cc(F)c(Oc3ccc(C)cc3)cc2F)C1=O` [Compound 20, (S)-4-((1-(2,5-difluoro-4-(p-tolyloxy)phenyl)ethyl)amino)-2-ethyl-2,3-dihydro-1H-pyrrolo[3,4-c]pyridin-1-one], for which the pIC50 in experiment [1] is 6.00 to 6.30; at IDH1 R132C, 6.30 to 7.00; at IDH1 R132H it was 6.30 to 7.00.

In the case of `CCN1Cc2c(ccnc2N[C@@H](C)c2cc(F)c(Oc3ccc4c(ccn4C)c3)cc2F)C1=O` [Compound 21, (S)-4-((1-(2,5-difluoro-4-((1-methyl-1H-indol-5-yl)oxy)phenyl)ethyl)amino)-2-ethyl-2,3-dihydro-1H-pyrrolo[3,4-c]pyridin-1-one], the negative logarithm of the IC50 (pIC50) in experiment [1] was under 6.00; on IDH1 R132C, 6.30 to 7.00; at IDH1 R132H it was over 7.00.

Regarding `CCN1Cc2c(ccnc2N[C@@H](C)c2cc(F)c(OC3CC(C)CC(C)(C)C3)cc2F)C1=O` (stereo partly drawn) [Compound 22, 4-(((1S)-1-(2,5-difluoro-4-((3,3,5-trimethylcyclohexyl)oxy)phenyl)ethyl)amino)-2-ethyl-2,3-dihydro-1H-pyrrolo[3,4-c]pyridin-1-one], the pIC50 (in experiment [1]; at IDH1 R132C; on IDH1 R132H) was over 7.00 each time.

Take `CCN1Cc2c(ccnc2N[C@@H](C)c2cc(F)c(O[C@@H]3C[C@@H](C)CC(C)(C)C3)cc2F)C1=O` [Compound 23, 4-(((S)-1-(2,5-difluoro-4-(((1R,5S)-3,3,5-trimethylcyclohexyl)oxy)phenyl)ethyl)amino)-2-ethyl-2,3-dihydro-1H-pyrrolo[3,4-c]pyridin-1-one]: the pIC50 (in experiment [1]; at IDH1 R132C; at IDH1 R132H) was over 7.00 throughout.
